From patent publication US10426761B2, “Method for treatment of disease caused or aggravated by microorganisms or relieving symptoms thereof” (ARMS Pharmaceutical LLC, priority 2011, dated 2019)

Columns and labels:
F. nucleatum = test: MIC, CLSI reference method; format: cell-based, Fusobacterium nucleatum; details: 24 h
Procedure: (§1) Cells were allowed to grow in the presence or absence (growth control) of the test agents for 24 hours. The MIC for each agent was defined as the concentration that induced a 100% growth inhibition (compared to no-drug control).

P. gingivalis = test: MIC, CLSI reference method; format: cell-based; details: 24 h
Procedure: as §1

S. mitis = test: MIC, CLSI reference method; format: cell-based; details: 24 h
Procedure: as §1

S. mutans = test: MIC, CLSI reference method; format: cell-based; details: 24 h
Procedure: as §1

S. oralis = test: MIC, CLSI reference method; format: cell-based; details: 24 h
Procedure: as §1

S. pneumonia = test: MIC, CLSI reference method; format: cell-based; details: 24 h
Procedure: as §1

S. pyogenes = test: MIC, CLSI reference method; format: cell-based; details: 24 h
Procedure: as §1

S. salivarius = test: MIC, CLSI reference method; format: cell-based; details: 24 h, 100% growth inhibition
Procedure: as §1

Y. enterocolitica = test: MIC, CLSI reference method; format: cell-based; details: 24 h
Procedure: as §1

C. albicans = test: MIC, CLSI microdilution (Candida); format: cell-based
C. krusei = test: MIC, CLSI microdilution (Candida); format: cell-based
C. tropicalis = test: MIC, CLSI microdilution (Candida); format: cell-based
C. glabrata = test: MIC, CLSI microdilution (Candida); format: cell-based
[1] = test system: Streptococcus salivarius, Candida albicans; test: in vitro filter insert-based barrier model (glycerin / xanthan gum)
Procedure: To identify further examples of concentrations of glycerin and xanthan gum that can form a barrier effective in preventing the passage of microorganisms, different concentrations of the gum xanthan gum and humectant glycerin were tested (5%-95% glycerin; 0.005%-0.5% xanthan gum) singly and in combination using an in vitro filter insert-based barrier model. […] Glycerin or xanthan gum or their combinations (100 μL aliquots) were overlaid on the surface of the filter to form a barrier. […] Next, 5×10^4 cells of either bacteria or fungi were applied on top of the formed barrier in the filter inserts. Next, we placed these filter inserts on the surface of agar medium (Brain Heart Infusion (BHI) medium for bacteria, Sabouraud Dextrose (SD) medium for fungi) in 6-well plates. The plates along with the filter inserts were incubated overnight for 24 hours at 37° C. The plates were monitored for the presence of bacterial or fungal growth CFUs (colony forming units) in the agar medium as well as in the filter insert.

MIC (F. nucleatum) [μg/mL chlorhexidine] | MIC (P. gingivalis) [μg/mL chlorhexidine] | MIC (S. mitis) [μg/mL chlorhexidine] | MIC (S. mutans) [μg/mL chlorhexidine] | MIC (S. oralis) [μg/mL chlorhexidine] | MIC (S. pneumonia) [μg/mL chlorhexidine] | MIC (S. pyogenes) [μg/mL chlorhexidine] | MIC (S. salivarius) [μg/mL chlorhexidine] | MIC (Y. enterocolitica) [μg/mL chlorhexidine] | MIC (C. albicans) [μg/mL chlorhexidine] | MIC (C. krusei) [μg/mL chlorhexidine] | MIC (C. tropicalis) [μg/mL chlorhexidine] | MIC (C. glabrata) [μg/mL chlorhexidine] | Structure (SMILES) | concentration at which a barrier was formed when tested alone [1]
19.6 | 19.6 | 19.6 | 19.6 | 19.6 | 19.6 | 19.6 | 19.6 | 19.6 | 19.6 | 19.6 | 19.6 | 19.6 | [H]/N=C(\N/C(=N/[H])NCCCCCCNC(=N)NC(=N)Nc1ccc(Cl)cc1)Nc1ccc(Cl)cc1 [Chlorhexidine, chlorhexidine gluconate] | 
 |  |  |  |  |  |  |  |  |  |  |  |  | OCC(O)CO [glycerin] | greater than or equal to 55%
